Data taken from patent US11713335B2, “Aminocoumarin compounds and methods of their use” (President and Fellows of Harvard College, priority 2018, dated 2023).
Values after ≈ are worked out from the molar mass of the structure shown. Read-outs that look alike come from different tables or passages of the source.

Key:
S. aureus RN4220 = assay: Minimal inhibitory concentration, S. aureus RN4220; format: cell-based; conditions: 16 hour minimal inhibitory concentration at 37° C., read-out: MIC (μM) S. aureus RN4220
Summary of the method: (§1)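 Growth at 600 nm after 16 h at 37 °C without shaking defines the MIC, taken as the lowest compound concentration that prevents growth and expressed in µM. Cultures grown to saturation in LB, or TSA for S. aureus, were diluted 1:100 twice before twofold serial compound dilution.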

E. cloacae 13047 = assay: Minimal inhibitory concentration, E. cloacae 13047; format: cell-based; conditions: 16 hour minimal inhibitory concentration at 37° C., read-out: MIC (μM) E. cloacae 13047
Summary of the method: as §1

S. aureus MW2 = assay: Minimal inhibitory concentration, S. aureus MW2; format: cell-based; conditions: 16 hour minimal inhibitory concentration at 37° C., read-out: MIC (μM) S. aureus MW2 (MRSA)
Summary of the method: as §1

WT E. coli = assay: Minimal inhibitory concentration in wild-type E. coli; format: cell-based, Escherichia coli; conditions: wild-type E. coli, 37° C., 16 hours, read-out: MIC (μM) in WT E. coli
Summary of the method: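 Broth microdilution: saturated LB overnight culture diluted 1:100 twice, compound serially two-fold diluted across the plate from DMSO stock. Static incubation 16 hours at 37° C, OD600 read; MIC taken as lowest concentration inhibiting growth.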

E. coli 25922 = assay: Minimal inhibitory concentration, E. coli 25922; format: cell-based; conditions: 16 hour minimal inhibitory concentration at 37° C., read-out: MIC (μM) E. coli 25922
Summary of the method: as §1

A. baumannii 19606 = assay: Minimal inhibitory concentration, A. baumannii 19606; format: cell-based; conditions: 16 hour minimal inhibitory concentration at 37° C., read-out: MIC (μM) A. baumannii 19606
Summary of the method: as §1

K. pneumoniae 700721 = assay: Minimal inhibitory concentration, K. pneumoniae 700721; format: cell-based; conditions: 16 hour minimal inhibitory concentration at 37° C., read-out: MIC (μM) K. pneumoniae 700721
Summary of the method: as §1

E. coli MC4100 = assay: Minimal inhibitory concentration, E. coli MC4100; format: cell-based; conditions: 16 hour minimal inhibitory concentration at 37° C., read-out: MIC (μM) E. coli MC4100 ara+
Summary of the method: as §1

[1] = Staphylococcus aureus, RN4220, 16 h
[2] = Staphylococcus aureus, MRSA, 16 h
[3] = Acinetobacter baumannii, 19606, 16 h

In the case of `CO[C@@H]1[C@@H](OC(N)=O)[C@@H](O)[C@H](Oc2ccc3c(O)c(NC(=O)c4ccc(C#Cc5ccccc5)cc4)c(=O)oc3c2C)OC1(C)C` [Compound 76], the MIC (S. aureus RN4220) was 5 µM (≈ 3.14 µg/mL), the MIC (E. cloacae 13047) was >100 µM and the MIC (S. aureus MW2) was 3 µM (≈ 1.89 µg/mL). The MIC (WT E. coli) was 40 µM (≈ 25.1 µg/mL), the MIC (E. coli 25922) was 80 µM (≈ 50.3 µg/mL) and the MIC (A. baumannii 19606) was 40 µM (≈ 25.1 µg/mL). For the same compound, the MIC (K. pneumoniae 700721) was >100 µM and the MIC (E. coli MC4100) was 40 µM (≈ 25.1 µg/mL).

With `CO[C@@H]1[C@@H](OC(N)=O)[C@@H](O)[C@H](Oc2ccc3c(O)c(NC(=O)c4cccc(C5CCC5)c4)c(=O)oc3c2C)OC1(C)C` [Compound 53] the MIC (S. aureus RN4220) was 11 µM (≈ 6.41 µg/mL), the MIC (E. cloacae 13047) was >100 µM and the MIC (S. aureus MW2) was 11 µM (≈ 6.41 µg/mL). For the same compound, the MIC (WT E. coli) was >300 µM, the MIC (E. coli 25922) was >200 µM and the MIC (A. baumannii 19606) was >50 µM. The MIC (K. pneumoniae 700721) was >100 µM and the MIC (E. coli MC4100) was >200 µM.

For `CO[C@@H]1[C@@H](OC(N)=O)[C@@H](O)[C@H](Oc2ccc3c(O)c(NC(=O)c4cccc(-c5cccnc5)c4)c(=O)oc3c2C)OC1(C)C` [Compound 29], the MIC (S. aureus RN4220; [1]) was 83 µM (≈ 50.3 µg/mL), the MIC (E. cloacae 13047; Enterobacter cloacae, 13047) was > 100 µM and the MIC (S. aureus MW2; [2]) was 83 µM (≈ 50.3 µg/mL). For the same compound, the MIC (WT E. coli; Escherichia coli) was > 300 µM, the MIC (E. coli 25922; Escherichia coli, 25922, 16 h) was > 200 µM and the MIC (A. baumannii 19606; [3]) was > 50 µM. For the same compound, the MIC (K. pneumoniae 700721; Klebsiella pneumoniae, 700721) was > 100 µM and the MIC (E. coli MC4100; Escherichia coli, MC4100, 16 h) was > 200 µM.

`CO[C@@H]1[C@@H](OC(N)=O)[C@@H](O)[C@H](Oc2ccc3c(O)c(NC(=O)c4cc(-c5ccc(F)cc5)cc(O)c4O)c(=O)oc3c2C)OC1(C)C` [Compound 97] was tested, and the MIC (S. aureus RN4220) was 76 µM (≈ 49.7 µg/mL), the MIC (E. cloacae 13047) was >100 µM and the MIC (S. aureus MW2) was 38 µM (≈ 24.9 µg/mL). The MIC (WT E. coli) was >300 µM, the MIC (E. coli 25922) was 153 µM (≈ 100 µg/mL) and the MIC (A. baumannii 19606) was >50 µM. The MIC (K. pneumoniae 700721) was >100 µM and the MIC (E. coli MC4100) was >200 µM.

With `CO[C@@H]1[C@@H](OC(N)=O)[C@@H](O)[C@H](Oc2ccc3c(O)c(NC(=O)c4cccc(C5CCCCC5)c4)c(=O)oc3c2C)OC1(C)C` [Compound 62] the MIC (S. aureus RN4220) was 5 µM (≈ 3.05 µg/mL), the MIC (E. cloacae 13047) was >100 µM and the MIC (S. aureus MW2) was 3 µM (≈ 1.83 µg/mL). For the same compound, the MIC (WT E. coli) was 59 µM (≈ 36 µg/mL), the MIC (E. coli 25922) was 82 µM (≈ 50.1 µg/mL) and the MIC (A. baumannii 19606) was >50 µM. The MIC (K. pneumoniae 700721) was 82 µM (≈ 50.1 µg/mL) and the MIC (E. coli MC4100) was 59 µM (≈ 36 µg/mL).

For `CO[C@@H]1[C@@H](OC(N)=O)[C@@H](O)[C@H](Oc2ccc3c(O)c(NC(=O)c4cccc(-c5cccc(C(C)C)c5)c4)c(=O)oc3c2C)OC1(C)C` [Compound 61], the MIC (S. aureus RN4220) was 0.39 µM (≈ 0.252 µg/mL), the MIC (E. cloacae 13047) was >100 µM and the MIC (S. aureus MW2) was 0.19 µM (≈ 0.123 µg/mL). The MIC (WT E. coli) was 59 µM (≈ 38.2 µg/mL), the MIC (E. coli 25922) was 77 µM (≈ 49.8 µg/mL) and the MIC (A. baumannii 19606) was 10 µM (≈ 6.47 µg/mL). For the same compound, the MIC (K. pneumoniae 700721) was >100 µM and the MIC (E. coli MC4100) was 59 µM (≈ 38.2 µg/mL).

For `CO[C@@H]1[C@@H](OC(N)=O)[C@@H](O)[C@H](Oc2ccc3c(O)c(NC(=O)c4cc(-c5ccccc5)c(O)cc4O)c(=O)oc3c2C)OC1(C)C` [Compound 67], the MIC (S. aureus RN4220) was 10 µM (≈ 6.37 µg/mL), the MIC (E. cloacae 13047) was >100 µM and the MIC (S. aureus MW2) was 5 µM (≈ 3.18 µg/mL). The MIC (WT E. coli) was 18 µM (≈ 11.5 µg/mL), the MIC (E. coli 25922) was 5 µM (≈ 3.18 µg/mL) and the MIC (A. baumannii 19606) was >50 µM. It also gave an MIC (K. pneumoniae 700721) of 79 µM (≈ 50.3 µg/mL) and an MIC (E. coli MC4100) of 18 µM (≈ 11.5 µg/mL).

With `CCc1ccc(-c2cccc(C(=O)Nc3c(O)c4ccc(O[C@@H]5OC(C)(C)[C@H](OC)[C@@H](OC(N)=O)[C@H]5O)c(C)c4oc3=O)c2)cc1` [Compound 54] the MIC (S. aureus RN4220) was 0.99 µM (≈ 0.626 µg/mL), the MIC (E. cloacae 13047) was >100 µM and the MIC (S. aureus MW2) was 0.99 µM (≈ 0.626 µg/mL). For the same compound, the MIC (WT E. coli) was 40 µM (≈ 25.3 µg/mL), the MIC (E. coli 25922) was 79 µM (≈ 50 µg/mL) and the MIC (A. baumannii 19606) was 20 µM (≈ 12.7 µg/mL). The MIC (K. pneumoniae 700721) was 79 µM (≈ 50 µg/mL) and the MIC (E. coli MC4100) was 40 µM (≈ 25.3 µg/mL).

In the case of `COc1cccc(-c2cccc(C(=O)Nc3c(O)c4ccc(O[C@@H]5OC(C)(C)[C@H](OC)[C@@H](OC(N)=O)[C@H]5O)c(C)c4oc3=O)c2)c1` [Compound 45], the MIC (S. aureus RN4220) was 5 µM (≈ 3.17 µg/mL), the MIC (E. cloacae 13047; Enterobacter cloacae, 13047) was > 100 µM and the MIC (S. aureus MW2) was 3 µM (≈ 1.9 µg/mL). For the same compound, the MIC (WT E. coli; Escherichia coli) was 89 µM (≈ 56.5 µg/mL), the MIC (E. coli 25922) was 79 µM (≈ 50.1 µg/mL) and the MIC (A. baumannii 19606) was >50 µM. For the same compound, the MIC (K. pneumoniae 700721; Klebsiella pneumoniae, 700721) was > 100 µM and the MIC (E. coli MC4100) was 89 µM (≈ 56.5 µg/mL).

`CO[C@@H]1[C@@H](OC(N)=O)[C@@H](O)[C@H](Oc2ccc3c(O)c(NC(=O)c4cccc(-c5cccc(C)c5)c4)c(=O)oc3c2C)OC1(C)C` [Compound 51] was tested, and the MIC (S. aureus RN4220; [1]) was 1.62 µM (≈ 1 µg/mL), the MIC (E. cloacae 13047; Enterobacter cloacae, 13047) was > 100 µM and the MIC (S. aureus MW2; [2]) was 1 µM (≈ 0.619 µg/mL). It also gave an MIC (WT E. coli; Escherichia coli) of 26 µM (≈ 16.1 µg/mL), an MIC (E. coli 25922; Escherichia coli, 25922, 16 h) of 81 µM (≈ 50.1 µg/mL) and an MIC (A. baumannii 19606; [3]) of 40 µM (≈ 24.7 µg/mL). The MIC (K. pneumoniae 700721; Klebsiella pneumoniae, 700721) was > 100 µM and the MIC (E. coli MC4100; Escherichia coli, MC4100, 16 h) was 26 µM (≈ 16.1 µg/mL).
